Reference: patent publication US8349835B2, “Aromatic ring fused triazine derivatives and uses thereof” (Shenyang Pharmaceutical University, priority 2008, dated 2013)
pIC50: −log10 of the molar value.

Legend:
[1] = system: Microvascular Endothelial Cells (MVEC); experiment: MTT growth inhibition of MVEC; assay type: cell-based; details: Endothelial cell, 96 h, 4 days culture with drug, read-out: IG50 on inhibiting growth of MVEC
Protocol: In Vitro Anti-Tumor Activity Test
Put cell suspension into centrifugal tubes with a pipette under sterile conditions, then the cell suspension was centrifuged for 3 minutes at 1300 rpm. Discarded the supernatant lightly and added fresh culture medium. Mixed the cells by pipetting, then transferred the cells into culture flasks, and put them into the CO2 incubator. Changed the culture medium once after 24 hours.
Human prostate cancer cells (DU145, PC-3) were cultured in a medium containing RPMI1640 basic medium supplemented with 10% heat-inactivated FBS, 100 IU/mL penicillin, 100 μg/mL streptomycin and 1 mmol/L L-glutamine. Human breast carcinoma cells (T47D, MDA-MB231) were cultured in a medium containing RPM11640 basic medium supplemented with 10% heat-inactivated FBS, 5 μg/mL insulin, 100 IU/mL penicillin, 100 μg/mL streptomycin and 1 mmol/L L-glutamine. Human breast carcinoma cells (MCF-7) were cultured in a medium containing DMEM basic medium supplemented with 10% heat-inactivated FBS, 5 μg/mL insulin, 100 IU/mL penicillin, 100 μg/mL streptomycin and […]. Murine Lewis lung cancer cells (LL/2), murine melanoma cells (B16FD) and Microvascular Endothelial Cells (MVEC) were cultured in a medium containing DMEM basic medium supplemented with 10% heat-inactivated FBS, 4.5 g/L glucose, 1.5 g/L NaHCO3, 100 IU/mL penicillin, 100 μg/mL streptomycin and 4 mmol/L L-glutamine. All these cell lines were incubated at 37° C. biochemical incubator with 5% CO2 saturated humidity.
After resuscitation, the cells were passed for 2-3 generations till they became stable, then they were used for the experiments. Each passage was based on the standard that all cells were spread over the bottoms of culture flasks.
Cells were digested off from the bottoms of culture flasks with trypsin (0.25%). The cell dissociation buffer was transferred into centrifuge tubes, added medium to stop the digestion, and centrifuged for 3 minutes at 1300 rpm. Discarded the supernatant lightly and added fresh culture medium (5 mL). Mixed the cells by pipetting, then added 10 μL of the cell suspension into the cell counting plate, and adjusted the cell concentration to 2×10^4 cells/mL. Added 100 μL of the cell suspension to all wells on the 96 well plates, except A1 well as the blank control. Put the plates into the biochemical incubator for 24 hours and to make sure the cells grew along the walls.
The drugs were dissolved in 80 mmol/L DMSO first, and then diluted the drugs with ethanol to 8 mmol/L. The solution was further diluted with the culture medium to different concentrations as 160 μmol/L, 120 μmol/L, 80 μmol/L, 40 μmol/L, 20 μmol/L and 10 μmol/L. Added 100 μL of the drug solution to each well on the 96 well plates. Therefore, the final concentrations of the drugs that were added to the cells were 80 μmol/L, 40 μmol/L, 20 μmol/L, 10 μmol/L and 5 μmol/L, and each concentration were repeated in three parallel wells. Put the culture plates into the biochemical incubator to culture continuously for 4 days.
Added 50 μL MTT liquids (2 mg/mL) into each well, put the culture plates into the biochemical incubator for 4 h, discarded MTT liquids (TCC), added 200 μL DMSO, then oscillated for 10 minutes on the magnetic oscillator to make sure that the survived cells and the reaction product of MTT were fully dissolved. Detected and recorded the absorbance (OD) values of each well at the wavelength of 570 nm using the microplate reader. The OD values of cells without tested drugs were used as control. The cell growth inhibition rates under each drug concentration were calculated by the following formula. […] Inhibition rate of growth(%)=(1−The absorbance(OD)of cells with tested drugs/The absorbance(OD)of the blank control group)×100%
The absorbance (OD) of cells with tested drugs: OD value is measured with the test drugs.
The absorbance (OD) of the blank control group: OD value is measured without the test drugs. […]

[2] = system: chorioallantoic membrane vessels; experiment: Activity test by chick chorioallantoic membrane method; assay type: in vivo; details: 5 uL medicine on cellulose membrane, chick embryo, 2 days
Protocol: After the shell membrane became wet, tore it open with ophthalmological tweezers so to expose the chorioallantoic membrane. • 6) Added 5 uL of selected medicine to a 0.5×0.5 cm cellulose membrane sterilized by high pressure, then set the membrane on the part of the chorioallantoic membrane with fewer vessels • 7) Closed the window, and put the embryos back into the hatch box to hatch for 2 days. • 8) Opened the transparent tape, and then opened the mixed cellulose membrane lightly with a tweezers. Measured the avascular area and took photographs.

VEGFR-2 = VEGFR-2 (Homo sapiens, UniProt P35968); experiment: VEGFR-2 inhibition rate test (kinase assay kit, colorimetric ELISA); details: concentration not given
Sequence of VEGFR-2 (P35968 20-1356): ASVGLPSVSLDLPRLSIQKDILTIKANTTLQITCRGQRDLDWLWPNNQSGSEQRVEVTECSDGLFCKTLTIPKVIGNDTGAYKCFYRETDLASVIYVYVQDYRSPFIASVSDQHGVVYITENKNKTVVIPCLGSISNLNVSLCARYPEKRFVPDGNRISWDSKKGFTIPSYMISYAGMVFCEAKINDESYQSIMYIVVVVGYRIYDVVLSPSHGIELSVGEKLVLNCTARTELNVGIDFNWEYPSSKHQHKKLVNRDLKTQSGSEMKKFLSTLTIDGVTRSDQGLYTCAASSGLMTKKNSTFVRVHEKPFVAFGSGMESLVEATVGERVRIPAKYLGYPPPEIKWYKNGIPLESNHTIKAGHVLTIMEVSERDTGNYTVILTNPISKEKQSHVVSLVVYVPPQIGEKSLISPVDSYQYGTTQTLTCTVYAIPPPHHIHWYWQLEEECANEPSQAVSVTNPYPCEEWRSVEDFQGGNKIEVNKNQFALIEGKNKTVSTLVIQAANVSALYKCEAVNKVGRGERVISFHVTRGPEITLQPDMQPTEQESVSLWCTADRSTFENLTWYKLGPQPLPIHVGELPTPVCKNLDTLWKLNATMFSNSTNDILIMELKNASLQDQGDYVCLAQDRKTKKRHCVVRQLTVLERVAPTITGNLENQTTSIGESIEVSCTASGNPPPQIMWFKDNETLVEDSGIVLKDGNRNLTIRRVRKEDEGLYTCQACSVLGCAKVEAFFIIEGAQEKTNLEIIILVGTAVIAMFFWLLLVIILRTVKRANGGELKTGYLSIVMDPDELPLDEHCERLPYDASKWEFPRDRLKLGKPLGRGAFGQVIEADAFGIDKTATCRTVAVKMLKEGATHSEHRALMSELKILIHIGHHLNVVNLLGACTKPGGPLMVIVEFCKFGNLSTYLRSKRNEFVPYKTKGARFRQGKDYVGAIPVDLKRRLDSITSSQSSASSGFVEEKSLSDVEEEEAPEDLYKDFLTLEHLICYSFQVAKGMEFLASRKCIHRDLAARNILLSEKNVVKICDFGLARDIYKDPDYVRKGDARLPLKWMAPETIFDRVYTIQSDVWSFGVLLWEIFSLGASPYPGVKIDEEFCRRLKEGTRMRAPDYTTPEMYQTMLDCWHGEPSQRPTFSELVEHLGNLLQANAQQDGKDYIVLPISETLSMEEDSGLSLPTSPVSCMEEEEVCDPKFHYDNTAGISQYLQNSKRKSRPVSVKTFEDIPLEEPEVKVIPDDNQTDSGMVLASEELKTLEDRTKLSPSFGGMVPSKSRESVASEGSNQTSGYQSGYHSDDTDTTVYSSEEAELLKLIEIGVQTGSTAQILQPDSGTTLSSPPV

Rat aortic ring = experiment: Rat Aortic Ring Assay; assay type: cell-based; details: for Rat Aortic Ring Assay (10 ug/ml), result in words: observed on the sixth day; for inhibition at 10 µg/mL: Rattus norvegicus, 10 ug/ml, compared with blank control, sixth day
Method in brief: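 1 mm abdominal aortic rings from 6-week-old SD animals embedded in Matrigel, cultured in DMEM/10% FBS with compound at various concentrations (≥3 wells), medium and compound renewed day 3. Microvessel area imaged on day 6 (×100, 3 random rings); inhibition rate scored: ⋆<30-60%, ⋆⋆60-90%, ⋆⋆⋆>90%.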

| Compound | Kinase inhibition rate (VEGFR-2) (VEGFR-2) | pIC50 [1] | The inhibitory effect on the growth of chorioallantoic membrane vessels [2] | Rat Aortic Ring Assay (10 ug/ml), result in words (Rat aortic ring) | inhibition at 10 µg/mL (Rat aortic ring) |
| --- | --- | --- | --- | --- | --- |
| CCCCOc1cc2nnnc(Nc3ccc(F)c(Cl)c3)c2cc1OC [Example 22, 6-methoxy-7-n-butoxy-4-(3-chloro-4-fluoroanilino)-benzo[d][1,2,3]triazine] | 0.80 | 4.76 | The vessels are fractured at the central part that is covered by paper. | Cell proliferation and migration were affected. Endothelial cell |  |
| CCCCOc1cc2nnnc(Nc3ccc(F)c(C(F)(F)F)c3)c2cc1OC [Example 23, 6-methoxy-7-n-butoxy-4-(3-trifluoromethyl-4-fluoroanilino)-benzo[d][1,2,3]triazine] |  | 4.79 | The vessels covered by paper become thinner and fewer. | Cell morphology was similar to D10, and cells were linear. |  |
| CCOc1cc2nnnc(Nc3cccc(OC(F)(F)F)c3)c2cc1OC [Example 36, 6-methoxy-7-ethoxy-4-(3-trifluoromethoxyanilino)-1,2,3-benzotriazine] |  | 4.63 | One sample exhibits no vascular growth at the zone covered by paper. | Almost complete inhibition (10 μg/mL) |  |
| CCOc1cc2nnnc(Nc3ccc(F)c(C(F)(F)F)c3)c2cc1OC [Example 40, 6-methoxy-7-ethoxy-4-(3-trifluoromethyl-4-fluoroanilino)-benzo[d][1,2,3]triazine] |  | 4.50 | One of the two samples exhibits inhibition | No significant inhibition |  |
| CCCCCOc1cc2nnnc(Nc3cc(F)cc(F)c3)c2cc1OC [Example 47, 6-methoxy-7-pentyloxy-4-(3,5-difluoroanilino)-benzo[d][1,2,3]triazine] |  | 4.55 | The vessels in the paper covered zone become fewer, | No significant inhibition |  |
| Fc1ccc(Nc2nnnc3ccc(Cl)nc23)cc1C(F)(F)F [Example 90, 6-chloro-4-(3-trifluoromethyl-4-fluoroanilino)pyrido[3,2-d][1,2,3]-triazine] |  | 4.97 | One exhibits no inhibition, and embryo of the other sample is dead. |  |  |
| Clc1ccc2nnnc(Nc3cccc(Br)c3)c2n1 [Example 92, 6-chloro-4-(3-bromoanilino)-pyrido[3,2-d][1,2,3]triazine] |  | 5.14 | One of the two samples exhibits significant vascular inhibition. |  | > 50% |

The next lines start with results.

| Kinase inhibition rate (VEGFR-2) (VEGFR-2) | Compound | pIC50 [1] | The inhibitory effect on the growth of chorioallantoic membrane vessels [2] | Rat Aortic Ring Assay (10 ug/ml), result in words (Rat aortic ring) | inhibition at 10 µg/mL (Rat aortic ring) |
| --- | --- | --- | --- | --- | --- |
| 11.22 | CCCCCOc1cc2nnnc(Nc3cccc(OC(F)(F)F)c3)c2cc1OC [Example 53, 6-methoxy-7-pentyloxy-4-(3-trifluoromethoxyanilino)-benzo[d][1,2,3]triazine] | 4.42 | Both of the samples exhibit inhibition ring at the central part of the paper, | No significant inhibition |  |
| 18.10 | COc1cc2c(Nc3ccc(Br)c(F)c3)nnnc2cc1OCCCCl [Example 62, 6-methoxy-7-chloropropoxy-4-(3-fluoro-4-bromoanilino)-benzo[1,2,3]triazine] |  | The embryo is dead. | No significant inhibition |  |
| 0.26 | COc1cc2c(Nc3cccc(C(F)(F)F)c3)nnnc2cc1OCCCCl [Example 67, 6-methoxy-7-chloropropoxy-4-(3-trifluoromethylanilino)-benzo[d][1,2,3]triazine] | 4.67 | The embryo is dead. |  | > 50% |
| 1.51 | COc1cc2c(Nc3ccc(C(F)(F)F)cc3)nnnc2cc1OCCCCl [Example 68, 6-methoxy-7-chloropropoxy-4-(4-trifluoromethylanilino)-benzo[d][1,2,3]triazine] |  | Two samples exhibit inhibition at the zone covered by paper. | Vascular growth is significantly inhibited |  |
| 0.26 | COc1cc2c(Nc3ccccc3F)nnnc2cc1OCCCCl [Example 74, 6-methoxy-7-chloropropoxy-4-(2-fluoroanilino)-benzo[d][1,2,3]triazine] |  | The vessels become rare and are fractured at the zone covered by paper. | Vessel density was small, cells were elongated and cell |  |
| 0.80 | COc1cc2c(Nc3cccc(Br)c3)nnnc2cc1OCCCCl [Example 75, 6-methoxy-7-chloropropoxy-4-(3-bromoanilino)-benzo[d][1,2,3]triazine] |  | Smaller inhibition ring appears at the zone covered by paper. | No significant inhibition |  |
| 9.35 | COc1cc2c(Nc3ccc(F)cc3)nnnc2cc1OCCCCl [Example 76, 6-methoxy-7-chloropropoxy-4-(4-fluoroanilino)-benzo[d][1,2,3]triazine] | 4.64 | The vessels become rare at the zone covered by paper. | No significant inhibition |  |
| 5.27 | Fc1ccc(Nc2nnnc3ccc(Cl)nc23)cc1 [Example 93, 6-chloro-4-(4-fluoroanilino)pyrido[3,2-d][1,2,3]triazine] | 4.93 | One of the two samples exhibits death of the embryo, and the other exhibits |  |  |
